Remaining activity data for 4 compounds are collected here from article PMC7827406, “Structure–Activity Relationship (SAR) Study of Spautin-1 to Entail the Discovery of Novel NEK4 Inhibitors” (International Journal of Molecular Sciences, 2021).

Like-named read-outs stand apart in the source and are kept apart here.

What all share (assay): biochemical
Holding throughout (parameters): Eurofins KinaseProfiler full panel at Km ATP, residual kinase activity (%) relative to DMSO

One assay addresses T1, ALK4(h) (Homo sapiens, UniProt P36896).
T1 construct: gene ACVR1B
T1 sequence (P36896 1-505): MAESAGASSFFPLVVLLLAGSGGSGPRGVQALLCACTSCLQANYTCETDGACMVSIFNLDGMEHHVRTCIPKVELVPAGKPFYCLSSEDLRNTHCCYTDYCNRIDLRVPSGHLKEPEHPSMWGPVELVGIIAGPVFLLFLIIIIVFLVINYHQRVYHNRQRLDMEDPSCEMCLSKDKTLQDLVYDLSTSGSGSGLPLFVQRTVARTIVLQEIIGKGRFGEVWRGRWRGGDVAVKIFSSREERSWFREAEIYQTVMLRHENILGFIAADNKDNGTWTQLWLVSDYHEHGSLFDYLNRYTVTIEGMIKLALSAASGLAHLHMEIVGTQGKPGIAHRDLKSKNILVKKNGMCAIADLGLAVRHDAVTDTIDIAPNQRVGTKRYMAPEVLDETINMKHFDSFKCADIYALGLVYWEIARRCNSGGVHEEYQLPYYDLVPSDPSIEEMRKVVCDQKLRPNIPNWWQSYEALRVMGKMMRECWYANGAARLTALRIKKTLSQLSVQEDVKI
The gist of the method: (§1)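 Compounds screened at 10 µM in radiometric kinase activity assays at Km ATP, reported as remaining kinase activity (%). A KINOMEscan competition-binding screen at 10 µM measured DNA-tagged kinase retained on immobilized active-site ligand by qPCR.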

The next assay addresses T2, CK2α1(h) (Homo sapiens, UniProt P68400).
T2 construct: gene CSNK2A1
In a few lines:
as §1

The target of another assay is CLK1(h) (Homo sapiens, UniProt P49759). The gist of the method: as §1
Another assay has as its target GRK6(h) (Homo sapiens, UniProt P43250). In a few lines:
as §1

For the next assay, the target named is T3, GRK7(h) (Homo sapiens, UniProt Q8WTQ7).
T3 sequence (Q8WTQ7 1-553): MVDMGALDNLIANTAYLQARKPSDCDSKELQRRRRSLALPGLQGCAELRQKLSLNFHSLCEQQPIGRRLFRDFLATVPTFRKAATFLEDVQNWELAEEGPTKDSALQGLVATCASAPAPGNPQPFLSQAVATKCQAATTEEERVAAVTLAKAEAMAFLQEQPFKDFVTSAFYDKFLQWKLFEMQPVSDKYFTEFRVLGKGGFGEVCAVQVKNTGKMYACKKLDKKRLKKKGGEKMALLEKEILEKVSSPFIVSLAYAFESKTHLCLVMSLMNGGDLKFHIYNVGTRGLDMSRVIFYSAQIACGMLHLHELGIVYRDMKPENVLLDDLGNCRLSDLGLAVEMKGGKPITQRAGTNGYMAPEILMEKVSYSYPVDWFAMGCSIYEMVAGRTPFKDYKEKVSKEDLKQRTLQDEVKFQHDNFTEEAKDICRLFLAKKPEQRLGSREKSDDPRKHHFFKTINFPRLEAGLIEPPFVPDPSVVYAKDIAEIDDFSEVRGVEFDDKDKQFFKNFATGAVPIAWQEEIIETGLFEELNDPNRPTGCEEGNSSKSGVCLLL
In a few lines:
as §1

Another assay deals with T4, MAPKAP-K3(h) (Homo sapiens, UniProt Q16644).
T4 construct: gene MAPKAPK3
The gist of the method:
as §1

For another assay, the target named is PASK(h) (Homo sapiens, UniProt Q96RG2). In a few lines:
as §1

For another assay, the target named is T5, PKCβI(h) (Homo sapiens, UniProt P05771).
T5 construct: gene PRKCB; isoform beta I
In a few lines:
as §1

For a further assay, the target named is T6, ROCK-I(h) (Homo sapiens, UniProt Q13464).
T6 construct: gene ROCK1
The gist of the method: as §1

Another assay deals with T7, Tie2(Y897S)(h) (Homo sapiens, UniProt Q02763, Y897S).
T7 construct: gene TEK
In a few lines: as §1

Where [1] appears, read: read-out: Residual activity (%) Spautin-1 5aa.
The mark [2] stands for this setting: read-out: Residual activity (%) 5as.
[3] abbreviates: read-out: Residual activity (%) 5at.
The mark [4] stands for this setting: read-out: Residual activity (%) 5ay.

T7 sequence (Q02763 whole entry Y897S): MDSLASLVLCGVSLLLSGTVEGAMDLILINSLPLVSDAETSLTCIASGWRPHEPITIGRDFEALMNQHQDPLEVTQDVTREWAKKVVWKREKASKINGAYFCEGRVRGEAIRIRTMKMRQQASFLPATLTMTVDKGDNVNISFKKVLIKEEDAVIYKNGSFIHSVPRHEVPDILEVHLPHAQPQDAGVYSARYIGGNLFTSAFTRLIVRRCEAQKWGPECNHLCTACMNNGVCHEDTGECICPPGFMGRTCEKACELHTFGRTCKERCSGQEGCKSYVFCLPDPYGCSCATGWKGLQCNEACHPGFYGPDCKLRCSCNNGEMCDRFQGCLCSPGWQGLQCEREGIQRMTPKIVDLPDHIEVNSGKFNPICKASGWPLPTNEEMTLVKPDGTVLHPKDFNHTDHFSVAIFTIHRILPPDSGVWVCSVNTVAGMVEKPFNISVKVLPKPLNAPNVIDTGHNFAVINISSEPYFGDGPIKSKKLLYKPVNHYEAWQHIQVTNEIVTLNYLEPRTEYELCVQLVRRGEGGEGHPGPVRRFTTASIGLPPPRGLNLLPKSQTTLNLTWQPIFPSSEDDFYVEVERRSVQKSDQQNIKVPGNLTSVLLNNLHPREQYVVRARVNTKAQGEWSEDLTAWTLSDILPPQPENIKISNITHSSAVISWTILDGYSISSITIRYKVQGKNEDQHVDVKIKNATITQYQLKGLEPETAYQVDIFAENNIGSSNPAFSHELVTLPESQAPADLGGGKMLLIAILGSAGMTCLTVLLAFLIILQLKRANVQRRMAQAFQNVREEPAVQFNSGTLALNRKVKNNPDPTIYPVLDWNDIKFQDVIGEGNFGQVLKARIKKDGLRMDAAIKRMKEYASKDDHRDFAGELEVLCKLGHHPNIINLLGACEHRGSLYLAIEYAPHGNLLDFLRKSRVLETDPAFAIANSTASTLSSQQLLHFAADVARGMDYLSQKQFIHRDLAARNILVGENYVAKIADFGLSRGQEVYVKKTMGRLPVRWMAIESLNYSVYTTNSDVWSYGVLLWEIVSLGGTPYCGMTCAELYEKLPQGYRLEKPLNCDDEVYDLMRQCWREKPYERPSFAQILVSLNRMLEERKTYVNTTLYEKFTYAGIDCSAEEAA
T5 sequence (P05771 whole entry, canonical isoform): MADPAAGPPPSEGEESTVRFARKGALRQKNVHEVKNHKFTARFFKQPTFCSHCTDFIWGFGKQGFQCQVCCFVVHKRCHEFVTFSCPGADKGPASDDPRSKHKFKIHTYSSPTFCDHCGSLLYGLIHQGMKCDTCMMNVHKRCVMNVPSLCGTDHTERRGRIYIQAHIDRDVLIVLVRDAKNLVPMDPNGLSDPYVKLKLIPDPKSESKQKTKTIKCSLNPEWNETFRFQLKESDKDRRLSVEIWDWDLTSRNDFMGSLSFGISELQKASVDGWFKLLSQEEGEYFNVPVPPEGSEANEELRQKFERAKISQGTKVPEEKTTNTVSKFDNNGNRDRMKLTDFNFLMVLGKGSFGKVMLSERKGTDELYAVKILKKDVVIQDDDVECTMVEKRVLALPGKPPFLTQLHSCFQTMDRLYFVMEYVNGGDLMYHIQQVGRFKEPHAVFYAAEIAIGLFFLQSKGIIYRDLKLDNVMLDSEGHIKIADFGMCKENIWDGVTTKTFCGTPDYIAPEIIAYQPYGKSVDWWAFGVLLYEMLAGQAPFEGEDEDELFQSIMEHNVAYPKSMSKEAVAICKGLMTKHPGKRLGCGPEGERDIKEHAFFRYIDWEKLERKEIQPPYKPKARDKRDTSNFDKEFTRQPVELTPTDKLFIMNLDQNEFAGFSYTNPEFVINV
Sequence of CLK1(h) (P49759 whole entry): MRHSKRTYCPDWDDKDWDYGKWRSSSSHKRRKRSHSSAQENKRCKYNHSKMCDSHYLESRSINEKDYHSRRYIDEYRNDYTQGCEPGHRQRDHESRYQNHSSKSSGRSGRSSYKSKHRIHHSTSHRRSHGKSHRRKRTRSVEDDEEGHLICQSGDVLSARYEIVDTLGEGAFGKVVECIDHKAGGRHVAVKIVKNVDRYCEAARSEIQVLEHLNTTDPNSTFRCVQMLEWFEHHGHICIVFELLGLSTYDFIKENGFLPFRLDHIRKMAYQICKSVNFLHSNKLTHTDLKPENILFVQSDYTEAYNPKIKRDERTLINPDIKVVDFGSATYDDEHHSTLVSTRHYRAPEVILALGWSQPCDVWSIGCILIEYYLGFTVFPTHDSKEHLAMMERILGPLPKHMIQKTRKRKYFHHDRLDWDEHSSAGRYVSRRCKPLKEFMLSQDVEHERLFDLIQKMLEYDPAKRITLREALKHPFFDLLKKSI
T4 sequence (Q16644 whole entry): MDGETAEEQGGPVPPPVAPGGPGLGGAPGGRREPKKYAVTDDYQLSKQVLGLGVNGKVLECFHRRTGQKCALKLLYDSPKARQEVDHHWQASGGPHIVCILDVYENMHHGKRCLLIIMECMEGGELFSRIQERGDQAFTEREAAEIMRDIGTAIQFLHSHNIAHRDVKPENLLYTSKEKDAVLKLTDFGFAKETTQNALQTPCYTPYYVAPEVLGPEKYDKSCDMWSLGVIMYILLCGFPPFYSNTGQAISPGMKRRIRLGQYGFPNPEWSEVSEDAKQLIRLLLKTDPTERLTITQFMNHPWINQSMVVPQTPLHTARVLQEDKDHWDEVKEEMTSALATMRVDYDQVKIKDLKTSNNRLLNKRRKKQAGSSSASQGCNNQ
Sequence of GRK6(h) (P43250 whole entry): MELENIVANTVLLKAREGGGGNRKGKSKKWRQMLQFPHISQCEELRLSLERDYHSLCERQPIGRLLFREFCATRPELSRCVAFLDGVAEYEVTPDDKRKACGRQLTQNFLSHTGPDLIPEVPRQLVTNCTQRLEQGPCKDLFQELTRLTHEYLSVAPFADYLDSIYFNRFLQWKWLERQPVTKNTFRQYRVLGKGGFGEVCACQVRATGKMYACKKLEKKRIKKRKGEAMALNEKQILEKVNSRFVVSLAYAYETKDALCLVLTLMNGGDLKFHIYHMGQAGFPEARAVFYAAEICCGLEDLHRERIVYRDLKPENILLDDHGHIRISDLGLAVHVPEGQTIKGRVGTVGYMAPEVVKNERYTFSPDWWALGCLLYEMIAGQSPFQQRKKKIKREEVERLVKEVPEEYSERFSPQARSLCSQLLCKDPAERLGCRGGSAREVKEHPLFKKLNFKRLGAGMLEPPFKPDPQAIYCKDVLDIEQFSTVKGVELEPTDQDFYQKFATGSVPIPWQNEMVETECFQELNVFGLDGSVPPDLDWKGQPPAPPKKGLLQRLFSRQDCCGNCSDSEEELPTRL
T6 sequence (Q13464 whole entry): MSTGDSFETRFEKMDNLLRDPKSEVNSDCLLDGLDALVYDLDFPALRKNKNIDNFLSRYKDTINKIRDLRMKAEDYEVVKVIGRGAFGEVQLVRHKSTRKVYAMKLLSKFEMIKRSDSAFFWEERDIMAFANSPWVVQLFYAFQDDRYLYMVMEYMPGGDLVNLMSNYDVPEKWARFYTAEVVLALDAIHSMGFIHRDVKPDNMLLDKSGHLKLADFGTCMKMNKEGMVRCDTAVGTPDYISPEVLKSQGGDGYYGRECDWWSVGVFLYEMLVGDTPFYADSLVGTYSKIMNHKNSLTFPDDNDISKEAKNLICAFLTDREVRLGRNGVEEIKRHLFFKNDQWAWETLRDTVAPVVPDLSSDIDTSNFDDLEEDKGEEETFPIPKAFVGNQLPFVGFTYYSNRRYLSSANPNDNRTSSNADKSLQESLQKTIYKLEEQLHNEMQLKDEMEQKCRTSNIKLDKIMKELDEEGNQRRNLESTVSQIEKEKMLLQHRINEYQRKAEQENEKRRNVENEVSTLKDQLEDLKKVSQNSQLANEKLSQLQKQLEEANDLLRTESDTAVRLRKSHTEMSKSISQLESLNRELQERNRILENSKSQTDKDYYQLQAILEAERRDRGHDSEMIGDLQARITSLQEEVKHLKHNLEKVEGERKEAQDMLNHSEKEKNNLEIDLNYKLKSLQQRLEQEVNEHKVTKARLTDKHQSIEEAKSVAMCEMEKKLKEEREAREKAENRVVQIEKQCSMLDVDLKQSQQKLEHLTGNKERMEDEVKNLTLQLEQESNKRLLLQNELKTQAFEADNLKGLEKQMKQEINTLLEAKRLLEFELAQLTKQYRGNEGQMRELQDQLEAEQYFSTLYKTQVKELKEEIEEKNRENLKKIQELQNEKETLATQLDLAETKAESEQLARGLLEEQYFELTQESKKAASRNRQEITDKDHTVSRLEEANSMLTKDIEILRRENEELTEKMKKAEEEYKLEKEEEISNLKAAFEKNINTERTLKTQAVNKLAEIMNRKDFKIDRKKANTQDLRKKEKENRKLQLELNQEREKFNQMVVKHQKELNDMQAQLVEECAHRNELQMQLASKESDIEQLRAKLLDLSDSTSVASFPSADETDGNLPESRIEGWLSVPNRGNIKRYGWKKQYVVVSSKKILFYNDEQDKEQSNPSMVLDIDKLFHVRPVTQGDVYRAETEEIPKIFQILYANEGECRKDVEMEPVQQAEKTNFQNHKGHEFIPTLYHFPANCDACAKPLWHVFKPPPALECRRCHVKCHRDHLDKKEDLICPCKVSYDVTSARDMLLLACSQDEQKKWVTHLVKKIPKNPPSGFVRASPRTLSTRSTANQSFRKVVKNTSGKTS
T2 sequence (P68400 whole entry): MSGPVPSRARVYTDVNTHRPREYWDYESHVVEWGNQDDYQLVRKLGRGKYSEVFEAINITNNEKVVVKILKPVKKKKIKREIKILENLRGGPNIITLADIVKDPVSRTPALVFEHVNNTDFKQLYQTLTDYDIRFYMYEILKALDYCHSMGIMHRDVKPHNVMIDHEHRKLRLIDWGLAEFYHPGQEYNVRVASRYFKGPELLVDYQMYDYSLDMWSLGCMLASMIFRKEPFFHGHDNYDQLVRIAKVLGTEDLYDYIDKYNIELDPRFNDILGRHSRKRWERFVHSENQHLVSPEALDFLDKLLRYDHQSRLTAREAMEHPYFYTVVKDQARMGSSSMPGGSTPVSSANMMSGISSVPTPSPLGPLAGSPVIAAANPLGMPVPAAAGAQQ

Take `Fc1ccc(CNc2ncnc3ccc(F)cc23)cc1` [5aa, 6-Fluoro-N-(4-fluorobenzyl)-4-Quinazolinamine]: the remaining activity at 10 µM on ALK4(h) (setting [1]) was 121%; on CK2α1(h) (setting [1]), 105%; at CLK1(h) (setting [1]) it was 23%; at GRK6(h) (setting [1]), 100%; on GRK7(h) (setting [1]) it was 87%; on MAPKAP-K3(h) (setting [1]), 95%. Also, the remaining activity at 10 µM on PASK(h) (setting [1]) worked out at 66%; on PKCβI(h) (setting [1]), 95%; at ROCK-I(h) (setting [1]), 91%; on Tie2(Y897S)(h) (setting [1]), 88%.

On to `Fc1ccc(CCNc2ncnc3ccc(F)cc23)cc1` [5as, 6-Fluoro-N-[2-(4-Fluorophenyl)Ethyl]-4-Quinazolinamine], for which the remaining activity at 10 µM at ALK4(h) (setting [2]) was 84%; on CK2α1(h) (setting [2]), 84%; at CLK1(h) (setting [2]), 28%; at GRK6(h) (setting [2]) it was 104%; at GRK7(h) (setting [2]), 95%; at MAPKAP-K3(h) (setting [2]) it was 66%. Also, the remaining activity at 10 µM on PASK(h) (setting [2]) worked out at 44%; on PKCβI(h) (setting [2]), 100%; on ROCK-I(h) (setting [2]) it was 98%; on Tie2(Y897S)(h) (setting [2]) it was 94%.

As for `Fc1ccc2ncnc(NCCc3ccc(Cl)cc3)c2c1` [5at, N-[2-(4-Chlorophenyl)Ethyl]-6-Fluoro-4-Quinazolinamine], the remaining activity at 10 µM on ALK4(h) (setting [3]) came to 61%; at CK2α1(h) (setting [3]), 78%; on CLK1(h) (setting [3]) it was 28%; at GRK6(h) (setting [3]) it was 99%; on GRK7(h) (setting [3]), 93%; on MAPKAP-K3(h) (setting [3]) it was 83%. The remaining activity at 10 µM on PASK(h) (setting [3]) is 30%; on PKCβI(h) (setting [3]), 93%; on ROCK-I(h) (setting [3]), 93%; on Tie2(Y897S)(h) (setting [3]) it was 85%.

Regarding `COc1ccc2ncnc(Nc3cccc(F)c3)c2c1` [5ay, N-(3-Fluorophenyl)-6-Methoxy-4-Quinazolinamine], the remaining activity at 10 µM was determined as 73% at ALK4(h) (setting [4]); 14% on CLK1(h) (setting [4]); 110% on GRK6(h) (setting [4]); 91% on GRK7(h) (setting [4]); 78% at MAPKAP-K3(h) (setting [4]); 65% on PASK(h) (setting [4]). Further, the remaining activity at 10 µM on PKCβI(h) (setting [4]) was 86%; on ROCK-I(h) (setting [4]), 96%; at Tie2(Y897S)(h) (setting [4]), 78%.
